These results are taken from patent publication US12351572B2, “Substituted 1,2,4-triazoles as TYK2 inhibitors” (Alumis Inc., priority 2018, dated 2025).

Holding throughout (format): in vivo
Data set [1] can be described thus: Pharmacokinetics in C57BL/6 mice. The following applies: male, mouse, plasma, iv, C0, I.V. (2 mg/kg), read-out: C0 or Cmax. As to the method:
(§1) The pharmacokinetics of test compounds were evaluated in male C57BL/6 mice, Sprague Dawley rats, Beagle dogs, and cynomolgus monkeys when administered via oral gavage and IV injection. The animals were fasted overnight before administration. Plasma samples were collected predose and at 0.5, 1, 3, 6, 9, 12, and 24 hours postdose. The samples were analyzed by LC/MS/MS and the concentration of test compound at each timepoint was determined by linear regression. Pharmacokinetic parameters were calculated from the plasma concentrations using Pheonix WinNonlin.

Data set [2] can be described thus: Pharmacokinetics in Sprague Dawley rats. Particulars: rat, plasma, iv, C0, I.V. (1 mg/kg), read-out: C0 or Cmax. As to the method: as §1
Data set [3] can be described thus: Pharmacokinetics in Beagle dogs. Particulars: dog, plasma, iv, C0, I.V. (1 mg/kg), read-out: C0 or Cmax. As to the method:
as §1

The nature of data set [4]: Pharmacokinetics in cynomolgus monkeys. The following applies: cynomolgus monkey, plasma, iv, C0, I.V. (1 mg/kg), read-out: C0 or Cmax. As to the method: as §1

Turning to `[2H]C([2H])([2H])NC(=O)c1nnc(NC(=O)C2CC2)cc1Nc1cccc(-c2ncn(C)n2)c1OC` [control, BMS-986165], the Cmax (in general, the highest concentration seen after dosing) in data set [1] came out at 3220 ng/mL; in data set [2] it was 1740 ± 276 ng/mL; in data set [3], 559 ± 34 ng/mL; in data set [4], 1420 ± 264 ng/mL.
